Data published in patent publication US9446019B2, “Sparstolonin B based pharmaceutical agent for neuroblastoma treatment” (University of South Carolina, priority 2013, dated 2016).

Columns and labels:
[1] = tested on: reactive oxygen species in neuroblastoma cells; assay: ROS generation, H2DCFDA staining, fluorescence microscopy; format: cell-based, human; conditions: SsnB 10 μM; SH-SY5Y and other neuroblastoma lines; p<0.05
Method: The production of reactive oxygen species (ROS) in SsnB-treated neuroblastoma cells was detected by a cell-permeable fluorescence probe H2DCFDA (carboxy-2′,7′-dichlorodihydrofluorescein diacetate) according to the manufacturer's instructions (Invitrogen, Carlsbad, Calif.). Briefly, neuroblastoma cells were cultured in DMEM with 10% FBS in Lab-TekII chamber slides (Fisher Scientific, Pittsburg, Pa.) and treated with SsnB for 2 days (SH-SY5Y and IMR-32 cells), 3 days (NGP cell) or 4 days (SKNF-1 and SK-N-BE(2) cells). […] Cells were washed three times with HBSS, mounted with Vectashield mounting medium (Vector Laboratories), and immediately examined under Nikon-E600 fluorescence microscopy equipped with fluorescein isothiocyanate (FITC) filter. Oxidation of H2DCFDA probe occurs almost exclusively in the cytosol, and generates a fluorescence that is proportional to ROS generation in that cell. […] Cells were trypsinized, washed, and re-suspended in PBS and fluorescence intensity was monitored at excitation wavelength 485 nm and emission wavelength 530 nm with a spectramax spectrophotometer (Molecular Devices, Sunnyvale, Calif.).
To test whether SsnB-induced cell death resulted from increased level of ROS, H2DCFDA staining was performed. […] The carboxy-DCF positive cells were quantitated by imageJ software and plotted. […]

[2] = tested on: human neuroblastoma cell lines (SH-SY5Y, SKNF-1, NGP, IMR-32 and SK-N-BE(2) cells); assay: MTT cell viability assay; format: cell-based
Source text: Human neuroblastoma cell lines (SH-SY5Y, IMR-32, SK-N-BE(2) and SKNF-1 cells) were obtained from The American Type Culture Collection (ATCC; Manassas, Va.), and NGP cells were kind gift from Garrett M. Brodeur (The Children's Hospital of Philadelphia, Philadelphia, Pa.). All cell lines were maintained in complete Dulbecco's Modified Eagle's Medium (DMEM) supplemented with 10% fetal bovine serum (FBS; Atlanta Biologicals, Lawrenceville, Ga.) and 1× antibiotic-antimycotic solution (containing 100 U/ml penicillin, 100 μg/ml streptomycin and 0.25 μg/ml amphotericin B), and grown at 37° C. in a humidified incubator with 5% CO2. Stock solution of SsnB was prepared in dimethyl sulfoxide (DMSO). Cells treated with different concentrations of SsnB in DMEM with 10% FBS were grown for subsequent days. Cells treated with equal volume of DMSO were used as control.
The viability of SsnB-treated cells was determined by MTT assay following manufacturer's instructions (Roche diagnostics corporation, Indianapolis, Ind.). Briefly, cells (1×10^4 cells/well) grown in 96-well cell culture plate were incubated with or without SsnB in 100 μl of complete culture medium with 10% FBS. After treatments, cells were incubated with 10 μl of MTT reagent for 4 h and then incubated overnight in solubilization buffer (100 μl) at 37° C. Absorbance of the formazan product was read at 575 nm in spectramax spectrophotometer (Molecular Devices, Sunnyvale, Calif.). A reference wavelength of 690 nm was used to detect background. The measured absorption directly correlated with the number of viable cells in culture. The experiments were performed in triplicate and repeated at least three times.
MTT assay was carried out to examine the effects of SsnB on viability of all the above listed neuroblastoma cells. After 2 days (SH-SY5Y and IMR-32), 3 days (NGP cells) or 4 days (SKNF-1 and SK-N-BE(2) cells) treatment with SsnB (1, 5, 10 and 20 μM), MTT cell viability assays were performed.

[3] = tested on: N-myc in IMR-32, NGP and SK-N-BE(2) cells; assay: N-myc protein level by Western blotting; format: cell-based, human
Method: After treatment with SsnB, cells were collected, washed with 1×PBS, and lysed with 1× cell lysis buffer (Cell Signaling Technology, Danvers, Mass.) containing phenylmethylsulfonyl fluoride (PMSF) and protease inhibitors (aprotinin and leupeptin) for 30 min on ice, and centrifuged at 12000×rpm for 10 min at 4° C. Supernatant (total cell protein) was collected and stored at −80° C. Protein concentration was determined by bicinchoninic acid method using BCA protein assay kit (Pierce/ThermoScientific, Waltham, Mass.). Equal amount of proteins were diluted with 5× Laemmli samples loading buffer and boiled for five minutes. The proteins were subjected to sodium dodecyl sulfate (SDS)-polyacrylamide gel electrophoresis and analyzed by Western blots. Briefly, after electrophoresis, proteins were transferred on polyvinylidene difluoride (PVDF) membrane at 100 volt for 3 h in cold room. […] Signals were detected by chemiluminiscence detection kit (Pierce/Thermo Fisher Scientific, Rockford, Ill.). […]
The level of N-myc proteins was evaluated from 2 days (IMR-32), 3 days (NGP cells) or 4 days (SK-N-BE(2) cells) SsnB-treated N-myc amplified neuroblastoma cells by Western blotting, and protein signal intensity was measured by ImageJ programme and plotted. […]

[4] = Homo sapiens, MTT, 2 days (SH-SY5Y, IMR-32), 3 days (NGP), 4 days (SKNF-1, SK-N-BE(2)), range over the cell lines

## O=c1occ2c3c(ccc(O)c13)Oc1ccc(O)cc1-2 [SsnB, 8,5′-dihydroxy-4-phenyl-5,2′-oxidoisocoumarin]
[1]
  number of carboxy-DCF positive cells vs DMSO: significantly increased
[2]; [4]
  IC20: 6 to 8 µM
  IC50: 10 to 12 µM
[2]; NGP cell
  sensitivity towards SsnB treatment: moderately sensitive
[2]; SH-SY5Y and IMR-32 cells
  sensitivity towards SsnB treatment: most sensitive
[2]; SKNF-1 and SK-N-BE(2) cell lines
  sensitivity towards SsnB treatment: least sensitive
[2]; SsnB 1 μM or 5 μM, p>0.05
  cell survival vs DMSO: No significant difference in cell survival
[2]; SsnB 10 μM alone, MTT, range over cell lines (FIG. 5A)
  neuroblastoma cell death: 40-60%
[2]; SsnB at and above 10 μM, p<0.05
  cell viability vs DMSO: significantly reduced the viability
[3]; SsnB 1 μM, nonsignificant vs control
  reduction in N-myc protein expression: not observed
[3]; SsnB 10 μM, 2 days (IMR-32), 3 days (NGP), 4 days (SK-N-BE(2))
  N-myc protein expression: inhibited the expression of N-myc protein
